Experimental data: US20070196866A1, “Modulators of ion channel trpa1” (IRM LLC, priority 2004, published 2007)
Where “and” joins values, the source holds several entries; their conditions need not be identical. Equal values may be shown once. Read-outs that look alike come from different tables or passages of the source.

Legend:
[1] = target: T1, mTRPA1 (Mus musculus, UniProt Q8BLA8); test: Ratiometric calcium imaging of CHO cells expressing mTRPA1; assay type: cell-based; settings: for increase in intracellular free calcium: ratiometric calcium imaging
T1 construct: expressed in transfected cells; host or cells: CHO cells
T1 sequence (Q8BLA8 whole entry): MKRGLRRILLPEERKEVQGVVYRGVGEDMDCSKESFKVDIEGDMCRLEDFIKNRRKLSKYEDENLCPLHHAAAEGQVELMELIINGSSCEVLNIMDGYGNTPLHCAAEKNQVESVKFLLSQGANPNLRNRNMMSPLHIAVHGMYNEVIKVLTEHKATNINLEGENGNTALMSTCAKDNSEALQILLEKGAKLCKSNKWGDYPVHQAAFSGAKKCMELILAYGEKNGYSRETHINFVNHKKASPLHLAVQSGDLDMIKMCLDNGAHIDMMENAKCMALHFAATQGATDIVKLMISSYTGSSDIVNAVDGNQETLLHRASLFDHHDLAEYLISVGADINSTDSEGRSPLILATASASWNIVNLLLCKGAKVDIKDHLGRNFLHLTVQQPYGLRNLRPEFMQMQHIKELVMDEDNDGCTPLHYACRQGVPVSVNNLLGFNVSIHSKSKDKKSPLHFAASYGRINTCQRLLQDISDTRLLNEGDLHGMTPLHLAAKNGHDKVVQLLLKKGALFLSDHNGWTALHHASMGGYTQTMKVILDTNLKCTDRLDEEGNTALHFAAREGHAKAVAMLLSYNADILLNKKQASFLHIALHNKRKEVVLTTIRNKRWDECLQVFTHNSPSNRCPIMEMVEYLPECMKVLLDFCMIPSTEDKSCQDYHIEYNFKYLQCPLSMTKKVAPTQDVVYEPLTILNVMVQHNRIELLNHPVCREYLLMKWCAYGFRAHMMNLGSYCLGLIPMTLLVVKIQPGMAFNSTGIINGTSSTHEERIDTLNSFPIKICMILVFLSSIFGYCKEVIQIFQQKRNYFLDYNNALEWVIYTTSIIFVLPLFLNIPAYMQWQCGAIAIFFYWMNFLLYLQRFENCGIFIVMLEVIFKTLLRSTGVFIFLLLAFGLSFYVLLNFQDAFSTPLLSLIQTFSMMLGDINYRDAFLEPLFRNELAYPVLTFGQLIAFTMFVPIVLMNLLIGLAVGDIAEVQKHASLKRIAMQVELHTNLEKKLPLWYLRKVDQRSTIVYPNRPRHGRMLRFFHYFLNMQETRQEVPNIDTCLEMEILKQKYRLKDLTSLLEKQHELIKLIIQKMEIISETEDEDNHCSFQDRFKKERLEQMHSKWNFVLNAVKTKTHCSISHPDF

[2] = target: T2, mouse TRPA1 (Mus musculus, UniProt Q8BLA8); test: FLIPR intracellular calcium assay, mouse TRPA1-expressing CHO cells; assay type: cell-based; settings: FLIPR; for increase in intracellular calcium upon application: mTRPA1 CHO cells; for EC50: mTRPA1
T2 construct: expressed in transfected cells; host or cells: CHO cells
T2 sequence (Q8BLA8 whole entry): as above

[3] = test system: TRPV1; test: Calcium imaging of TRPV1-expressing CHO cells; assay type: cell-based
[4] = target: T3, TRPV4 (Homo sapiens, UniProt Q9HBA0); test: Calcium imaging of TRPV4-expressing CHO cells; assay type: cell-based
T3 construct: expressed in transfected cells; host or cells: CHO cells
T3 sequence (Q9HBA0 whole entry, species assumed): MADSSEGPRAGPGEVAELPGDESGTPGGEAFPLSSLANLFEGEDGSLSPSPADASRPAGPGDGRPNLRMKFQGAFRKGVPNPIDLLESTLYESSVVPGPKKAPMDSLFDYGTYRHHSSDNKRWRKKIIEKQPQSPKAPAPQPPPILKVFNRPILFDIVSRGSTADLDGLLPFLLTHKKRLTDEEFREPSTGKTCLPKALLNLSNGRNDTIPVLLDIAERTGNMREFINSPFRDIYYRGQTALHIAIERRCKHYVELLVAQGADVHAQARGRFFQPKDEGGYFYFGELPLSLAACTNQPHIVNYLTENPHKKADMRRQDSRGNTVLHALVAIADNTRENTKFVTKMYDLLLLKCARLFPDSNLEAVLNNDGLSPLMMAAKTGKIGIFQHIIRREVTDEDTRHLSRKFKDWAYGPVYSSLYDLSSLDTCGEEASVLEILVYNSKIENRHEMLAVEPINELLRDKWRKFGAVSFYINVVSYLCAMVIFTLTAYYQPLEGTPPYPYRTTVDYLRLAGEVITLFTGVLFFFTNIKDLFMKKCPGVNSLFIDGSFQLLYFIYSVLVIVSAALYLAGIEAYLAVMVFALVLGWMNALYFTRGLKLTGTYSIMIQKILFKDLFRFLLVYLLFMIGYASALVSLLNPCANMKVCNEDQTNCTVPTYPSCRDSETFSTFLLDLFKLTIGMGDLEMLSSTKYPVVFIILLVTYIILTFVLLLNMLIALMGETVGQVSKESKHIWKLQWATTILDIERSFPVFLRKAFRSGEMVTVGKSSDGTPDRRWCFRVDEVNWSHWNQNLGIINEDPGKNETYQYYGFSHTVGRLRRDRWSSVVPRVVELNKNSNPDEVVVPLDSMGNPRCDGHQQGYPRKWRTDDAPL

[5] = test system: TRPM8; test: Calcium imaging of TRPM8-expressing CHO cells; assay type: cell-based
Method: We focused on the two mTRPA1-specific compounds. Using FLIPR, we determined the concentration for half maximal activation to be 61±9 μM for cinnamaldehyde and 22±3 μM for allyl isothiocyanate. […] Ruthenium red, a known blocker of mTRPA1, blocked the cinnamaldehyde response.
(§1) We next tested if specific inhibition of PLC by U-73122 would affect TRPA1 activation by bradykinin. […] We then tested if PLC inhibition of TRPA1 was stimulus specific. […] We further tested the role of PLC inhibition on TRPM8.

[6] = target: T1, mTRPA1; test: Whole cell patch clamp of mTRPA1-expressing CHO cells; assay type: cell-based
Description: (§2) We also characterized the cinnamaldehyde-induced current in mTRPA1 expressing CHO cells. […] Expression of either mouse or human TRPA1 (hTRPA1) in Xenopus oocytes rendered these cells responsive to cinnamaldehyde as well as to cold temperatures. […] Indeed, the cinnamaldehyde-induced current from mTRPA1-expressing oocytes rarely returned to baseline, even after washing out the compound.

[7] = target: T2, mouse TRPA1; test: Current recording in Xenopus oocytes expressing mouse TRPA1; assay type: cell-based
Description: as §2

[8] = target: T4, human TRPA1 (hTRPA1) (Homo sapiens, UniProt O75762); test: Current recording in Xenopus oocytes expressing human TRPA1; assay type: cell-based
T4 construct: expressed in transfected cells; host or cells: Xenopus oocytes
T4 sequence (O75762 whole entry): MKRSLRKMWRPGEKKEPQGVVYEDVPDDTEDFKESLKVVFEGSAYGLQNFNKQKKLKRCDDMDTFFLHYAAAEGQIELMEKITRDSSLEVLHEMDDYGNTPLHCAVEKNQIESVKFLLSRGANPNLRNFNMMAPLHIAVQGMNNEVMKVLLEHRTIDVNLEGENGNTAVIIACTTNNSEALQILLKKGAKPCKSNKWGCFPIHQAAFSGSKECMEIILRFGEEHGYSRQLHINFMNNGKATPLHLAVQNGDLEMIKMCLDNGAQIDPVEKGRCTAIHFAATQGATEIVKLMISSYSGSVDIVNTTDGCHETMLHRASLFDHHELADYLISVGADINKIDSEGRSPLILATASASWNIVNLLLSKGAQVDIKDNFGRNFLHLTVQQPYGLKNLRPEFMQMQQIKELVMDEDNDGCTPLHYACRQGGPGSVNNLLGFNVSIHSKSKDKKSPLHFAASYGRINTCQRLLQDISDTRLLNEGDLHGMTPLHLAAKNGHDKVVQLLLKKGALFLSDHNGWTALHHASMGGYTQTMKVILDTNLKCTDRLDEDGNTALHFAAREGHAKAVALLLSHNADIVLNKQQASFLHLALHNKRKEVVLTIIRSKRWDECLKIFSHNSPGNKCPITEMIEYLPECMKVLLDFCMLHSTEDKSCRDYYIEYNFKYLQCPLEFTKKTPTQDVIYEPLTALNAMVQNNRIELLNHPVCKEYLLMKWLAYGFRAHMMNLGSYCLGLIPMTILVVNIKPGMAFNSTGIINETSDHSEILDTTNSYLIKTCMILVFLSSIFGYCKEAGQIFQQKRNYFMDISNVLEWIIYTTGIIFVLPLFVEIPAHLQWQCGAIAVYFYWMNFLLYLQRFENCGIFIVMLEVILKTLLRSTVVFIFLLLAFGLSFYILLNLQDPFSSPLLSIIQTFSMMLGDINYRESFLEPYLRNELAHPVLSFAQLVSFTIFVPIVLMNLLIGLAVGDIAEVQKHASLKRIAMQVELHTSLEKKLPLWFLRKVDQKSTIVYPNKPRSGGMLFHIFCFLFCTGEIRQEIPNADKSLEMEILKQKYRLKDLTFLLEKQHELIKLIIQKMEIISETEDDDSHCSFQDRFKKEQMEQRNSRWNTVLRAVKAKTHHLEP
Description: as §2
Increased currents by repeated application of cinnamaldehyde (sensitization) in oocyte recordings is in contrast to strong desensitization to cinnamaldehyde observed in mTRPA1-expressing CHO cell.

[9] = target: T5, dTRPA1 (dANTKM1) (Drosophila melanogaster, UniProt Q7Z020); test: Current recording in oocytes expressing dTRPA1; assay type: cell-based
T5 construct: expressed in transfected cells; host or cells: oocytes (Xenopus, from the preceding sentences)
T5 sequence (Q7Z020 1-1197): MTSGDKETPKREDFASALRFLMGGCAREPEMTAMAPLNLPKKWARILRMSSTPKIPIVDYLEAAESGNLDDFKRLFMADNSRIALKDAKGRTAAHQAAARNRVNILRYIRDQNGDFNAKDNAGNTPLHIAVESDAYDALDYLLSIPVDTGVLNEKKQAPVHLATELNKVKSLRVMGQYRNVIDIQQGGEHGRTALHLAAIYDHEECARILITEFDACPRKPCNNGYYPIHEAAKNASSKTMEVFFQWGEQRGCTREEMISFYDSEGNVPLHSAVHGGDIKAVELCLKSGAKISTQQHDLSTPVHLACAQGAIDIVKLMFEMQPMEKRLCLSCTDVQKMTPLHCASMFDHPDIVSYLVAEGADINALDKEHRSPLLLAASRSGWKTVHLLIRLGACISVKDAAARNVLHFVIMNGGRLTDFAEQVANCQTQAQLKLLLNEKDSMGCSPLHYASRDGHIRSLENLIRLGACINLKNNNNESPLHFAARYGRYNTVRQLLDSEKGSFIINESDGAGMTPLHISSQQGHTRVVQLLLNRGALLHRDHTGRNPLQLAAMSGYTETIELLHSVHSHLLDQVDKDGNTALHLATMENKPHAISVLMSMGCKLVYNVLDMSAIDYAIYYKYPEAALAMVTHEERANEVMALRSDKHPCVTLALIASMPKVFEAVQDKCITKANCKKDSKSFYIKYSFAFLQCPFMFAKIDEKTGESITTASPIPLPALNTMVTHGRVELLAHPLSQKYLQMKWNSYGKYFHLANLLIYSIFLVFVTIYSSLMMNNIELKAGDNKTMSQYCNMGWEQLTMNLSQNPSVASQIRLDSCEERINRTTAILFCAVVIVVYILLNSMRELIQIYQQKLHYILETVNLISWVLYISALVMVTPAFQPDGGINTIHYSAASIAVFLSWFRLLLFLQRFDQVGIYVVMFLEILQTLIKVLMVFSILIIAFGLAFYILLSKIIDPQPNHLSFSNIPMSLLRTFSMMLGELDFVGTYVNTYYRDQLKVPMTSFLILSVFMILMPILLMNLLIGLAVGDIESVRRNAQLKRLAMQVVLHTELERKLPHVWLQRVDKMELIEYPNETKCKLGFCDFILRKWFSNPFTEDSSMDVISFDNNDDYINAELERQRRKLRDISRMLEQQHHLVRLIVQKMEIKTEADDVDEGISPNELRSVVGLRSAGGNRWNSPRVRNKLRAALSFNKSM

[10] = test system: adult rat DRG neurons; test: Calcium imaging of cultured adult rat DRG neurons; assay type: cell-based; settings: 1.6 times the EC50
Description: To further test this hypothesis, and to find out if the pungent compounds described above activate TRPA1 specifically, we performed calcium imaging of adult rat DRG neurons in response to cold, menthol, cinnamaldehyde, allyl isothiocyanate, and bradykinin. […] To a large extent, cinnamaldehyde and menthol activated mutually exclusive populations of cold-responsive neurons, as our model would predict. Allyl isothiocyanate appeared less specific as it activated 63% of the cold-responsive population (including a large overlap with menthol) and 12% of the cold-insensitive population. We have used 1.6 times the EC50 values of cinnamaldehyde and allyl isothiocyanate to enable us to directly compare DRG response profiles to these compounds. […] There were no significant differences in profiles of cinnamaldehyde and allyl isothiocyanate between cultures in the presence of 1 and 100 ng/ml of NGF.
In addition to the pungent sensory compounds, we have shown that BK can activate TRPA1.
To test if garlic extracts and allicin specifically activate TRPA1 in native neurons, we performed calcium imaging of adult rat DRG neurons. […] Addition of allicin or garlic extract to cultured rat DRG neurons activated a specific population of neurons.

[11] = Nociceptive behavior after intraplantar injection in mice; assay type: in vivo; settings: for licking and shaking of the injected hindpaw: wildtype mice, intraplantar, five minutes post-injection, cinnamaldehyde 5 mM and 16.4 mM
[12] = Paw withdrawal latency to heat (hyperalgesia) after intraplantar injection; assay type: in vivo, mice
Method: To provide further evidence of the role of TRPA1 in pain sensation, we investigated if cinnamaldehyde injections could lead to hyperalgesia, an increased response to pain due to sensitization often caused by inflammation or injury. […] In contrast, no significant difference could be observed between the latencies of the two paws when vehicle was injected.
Hyperalgesia to heat is thought to involve sensitization of TRPV1. […] Note that paw withdrawal latencies to heat are higher in TRPV1^−/− mice, consistent with the partial heat sensitivity phenotype of these mice (Caterina et al., Science 288: 306-313, 2000; and Davis et al., Nature 405: 183-187, 2000). Therefore, the acute nociceptive response of cinnamaldehyde is independent of TRPV1, while the heat hyperalgesia is mediated through TRPV1.

[13] = test system: B2R/TRPA1- expressing CHO cells; test: Calcium imaging of BK responses in B2R/TRPA1-expressing CHO cells; assay type: cell-based; settings: 10 μM
Description: as §1

[14] = test system: B2R-expressing cells; test: Calcium imaging of BK responses in B2R-expressing cells; assay type: cell-based; settings: 10 μM
Description: as §1

[15] = test system: naïve CHO cells; test: Calcium response of naive CHO cells; assay type: cell-based; settings: alone
Description: Another downstream effect of PLC activity is the generation of Diacylglycerol (DAG). Therefore, we tested if l-Oleoyl-2-acetyl-sn-glycerol (OAG, a cell permeable analog of DAG) could activate TRPA1. […] OAG alone gives no response in naïve CHO cells. DAG can be converted to poly-unsaturated fatty acid (PUFAs) such as arachidonic acid (AA). […] AA can be converted to numerous metabolites, including prostaglandins. […] However, such a compound named 5,8,11,14-Eicosatetraynoic acid (ETYA) activated TRPA1- expressing CHO cells. Therefore, AA metabolism is not required for the activation of TRPA1.

[16] = target: TRPA1 (Homo sapiens, UniProt O75762); test: Thapsigargin response of cells transiently transfected with hTRPA1 and YFP reporter; assay type: cell-based; design: expressed in transfected cells; settings: same coverslip
TRPA1, sequence (O75762 whole entry): as the sequence (O75762 whole entry) above
Description: Phospholipase C (PLC) and phospholipase A2 are activated by BK signaling. Since many TRP channels are modulated by PLC activity, we tested whether downstream affectors of PLC can modulate TRPA1 function. One of the major consequences of PLC activation is the release of calcium from intracellular stores. We therefore tested if passive release of calcium from the stores with the […] endoplasmic reticulum Ca^2+-ATPase (SERCA) pump blocker thapsigargin could activate TRPA1 function. We examined the effect of thapsigargin on cells transiently-transfected with hTRPA1 and YFP reporter plasmid. This allowed for a direct comparison between TRPA1-expressing (YFP positive) and control (YFP negative) cells under the same experimental conditions (on the same coverslip).

[17] = target: T1, mTRPA1; test: Screen of cinnamaldehyde-like compounds in heterologous expression systems; assay type: cell-based; settings: even in millimolar concentrations

CCCCCC#CCC#CCC#CCC#CCCCC(=O)O [ETYA, 5,8,11,14-Eicosatetraynoic acid]
activation of mTRPA1/TRPA1-expressing CHO cells [1]: activated

CCCCC/C=C\C/C=C\C/C=C\C/C=C\CCCC(=O)O [AA, arachidonic acid]
activation of mTRPA1/TRPA1-expressing CHO cells [1]: activated

O=CC=Cc1ccccc1 [cinnamaldehyde]
specificity to mTRPA1 when tested against TRPM8 and TRPV1 [2]: specific to mTRPA1
increase in intracellular calcium upon application [2]: sharp increase in intracellular calcium
EC50 ([2]; concentration for half maximal activation (EC50)): 61 µM and ~61 µM
increase in intracellular free calcium [1]: robust increase in intracellular free calcium
activation of TRPV1-expressing CHO cells [3]: did not activate
activation of TRPV4-expressing CHO cells [4]: did not activate
activation of TRPM8-expressing CHO cells [5]: did not activate
elicited current [6]: robust desensitized current
response of mouse TRPA1-expressing oocytes [7]: responsive
response of human TRPA1-expressing oocytes [8]: responsive
current of second pulse relative to first pulse ([8]; repeated applications, n=6): 250±23%
response of dTRPA1-expressing oocytes [9]: did not respond
share of cold-activated (cold-responsive) DRG neurons activated [10]: 39%
share of cold-insensitive neurons activated [10]: 1%
response to injection ([11]; TRPV1−/− mice): responded
licking and shaking of the injected hindpaw [11]: induced licking and shaking of the injected hindpaw
heat hyperalgesia ([12]; TRPV1−/− mice): absent
paw withdraw latency, injected compared to control paws ([12]; thirty minutes after injection, p=0.009): significantly lowered

COc1ccc2c(c1)CC[C@@H]1[C@@H]2CC[C@]2(C)[C@@H](NCCCCCCN3C(=O)C=CC3=O)CC[C@@H]12 [U-73122]
effect on TRPA1 activation by cinnamaldehyde ([1]; stimulus cinnamaldehyde): inhibited
effect on TRPA1 activation by cold ([1]; stimulus cold): strongly downregulated
effect on cold- and menthol-induced responses of TRPM8 ([5]; preincubation necessary for menthol block): strongly dowregulated
inhibition of BK responses in B2R/TRPA1-expressing CHO cells [13]: inhibited
inhibition of BK responses in B2R-expressing cells [14]: inhibited

N.N.N.N.N.N.N.N.N.N.N.N.N.N.[Cl-].[Cl-].[Cl-].[Cl-].[Cl-].[Cl-].[O-2].[O-2].[Ru+3].[Ru+3].[Ru+4] [Ruthenium red]
block of AA activation ([1]; stimulus AA): blocked
block of the OAG response ([1]; stimulus OAG): blocked
block of the cinnamaldehyde response ([1]; stimulus cinnamaldehyde): blocked

CCCCC[C@H](O)CC(=O)CCc1ccc(O)c(OC)c1 [Gingerol]
increase in intracellular calcium upon application [2]: sharp increase in intracellular calcium

CCCCCCCC/C=C\CCCCCCCC(=O)OC[C@H](CO)OC(C)=O [OAG, l-Oleoyl-2-acetyl-sn-glycerol]
activation of mTRPA1/TRPA1-expressing CHO cells [1]: robust response
response in naïve CHO cells [15]: no response

C/C=C(/C)C(=O)O[C@H]1C(C)=C2[C@H]([C@@H]1OC(=O)CCCCCCC)[C@@](C)(OC(C)=O)C[C@H](OC(=O)CCC)[C@@]1(O)[C@H]2OC(=O)[C@@]1(C)O [thapsigargin]
response in YFP-positive (TRPA1-expressing) cells compared with control cells [16]: slightly smaller than in YFP-negative cells

C=CCc1ccc(O)c(OC)c1 [Eugenol]
increase in intracellular calcium upon application [2]: sharp increase in intracellular calcium

COc1ccc2c(c1)CC[C@@H]1[C@@H]2CC[C@]2(C)[C@@H](NCCCCCCN3C(=O)CCC3=O)CC[C@@H]12 [U-73343]
inhibition of BK responses in B2R/TRPA1-expressing CHO cells [13]: not
inhibition of BK responses in B2R-expressing cells [14]: not

C=CCN=C=S [allyl isothiocyanate]
specificity to mTRPA1 when tested against TRPM8 and TRPV1 [2]: specific to mTRPA1
EC50 ([2]; read-out: concentration for half maximal activation (EC50)): 22 ± 3 µM
increase in intracellular calcium upon application [2]: sharp increase in intracellular calcium
increase in intracellular free calcium [1]: robust increase in intracellular free calcium
activation of TRPV1-expressing CHO cells [3]: did not activate
activation of TRPV4-expressing CHO cells [4]: did not activate
activation of TRPM8-expressing CHO cells [5]: did not activate
share of cold-activated (cold-responsive) DRG neurons activated [10]: 63%
share of cold-insensitive neurons activated [10]: 12%

O=C(O)C=Cc1ccccc1 [Cinnamic acid, reference compound]
licking and shaking of the injected hindpaw [11]: not observed
activation of mTRPA1 [17]: did not activate
